Measurements from patent US6548634B1, “Synthetic peptides having FGF receptor affinity” (priority 1998, dated 2003).
Like-named read-outs stand apart in the source and are kept apart here. Where a SMILES comes first, the peptide text is derived from it. Where no end group is shown, it is not given here.

Legend:
[1] = system: Swiss 3T3 fibroblasts; test: BrdU incorporation (mitogenesis) in Swiss 3T3 fibroblasts; type: cell-based; settings: for mitogenic activity in Swiss 3T3: BrdU incorporation
Method: 6×Histidine-tagged Clone 19-jun protein (FIG. 1A) was expressed in bacteria and purified by metal affinity chromatography as described in Example 5. Assay of BrdU incorporation, a measure of entry of cells into S-phase and therefore of mitogenesis, was performed according to manufacturers instructions (Cell proliferation ELISA, BrdU, Cat. No. 1-647-229, Boehringer-Mannheim, Indianapolis, Ind.). Briefly, 1×10^4 Swiss 3T3 cells per well were plated on gelatin-coated 96-well microtiter plates in complete media (DMEM, 10% FCS, antibiotics), incubated 24 hours, and the media changed to quiescent media for an addition 24 hours (DMEM containing 0.5 mg/ml bovine serum albumin, 1 μg/ml insulin, 5 μg/ml transferrin, antibiotics). The cells were then treated with bFGF or Clone 19-jun protein at the indicated concentrations in the presence of 15 U/ml heparin. 18 hours later, BrdU was added, the cells incubated an additional 4 hours, and assayed as described. […] Heparin alone had no effect, nor did a control protein expressed and purified in the same manner in which the C19 sequence was deleted.

[2] = biological target: T1, FGFR1c extracellular domain-IgG fusion protein (Homo sapiens, UniProt P11362); test: Eu-labeled FGFR-IgG displacement from immobilized phagemid; type: binding; settings: phage-displayed peptide, FIG. 7, read-out: IC50, displacement of Europium-labeled FGFR-IgG by unlabeled FGFR-IgG
T1 construct: human FGFR Ic (residues 1-377); made in house
T1 sequence (P11362 22-377): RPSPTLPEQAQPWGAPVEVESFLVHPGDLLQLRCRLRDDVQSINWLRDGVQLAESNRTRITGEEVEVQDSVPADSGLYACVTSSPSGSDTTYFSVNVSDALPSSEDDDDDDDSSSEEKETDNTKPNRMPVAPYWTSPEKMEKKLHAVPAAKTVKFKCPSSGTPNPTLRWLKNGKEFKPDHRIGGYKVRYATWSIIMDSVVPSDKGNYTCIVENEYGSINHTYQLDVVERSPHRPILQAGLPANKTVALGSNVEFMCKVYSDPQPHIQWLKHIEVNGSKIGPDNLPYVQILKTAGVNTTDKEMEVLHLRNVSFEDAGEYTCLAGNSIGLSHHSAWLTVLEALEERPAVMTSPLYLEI
Method: The immobilization of phagemid using antibodies, followed by probing with selected ligand in an ELISA format has been reported previously (Valadon, P. & Scharff, M. D., 1996 J. Immunol. Methods 197, 171-179). We developed a more sensitive detection method using Europium chelate-conjugated target receptor.
Nunc Maxisorp 96-well plates were coated with […] anti-M13 antibody in […] 50 mM Na2CO3 pH 9.6 and blocked using the conditions described in Example 2. Phagemid (˜10^11 cfu) were applied to wells in binding buffer for 1 h and washed 6 times with PBS, 0.05% Tween 20, and 2 times with Delphia Wash Buffer (E&G Wallac). Serial dilutions of unlabeled FGFR-IgG were added along with a constant amount (500 pM−2.5 nM) of Europium-labeled FGFR-IgG in Delphia Assay Buffer (prepared according to instructions from E&G Wallac), and reactions allowed to incubate for 2 h. Wells were washed 8× in Delphia Wash Buffer, treated with 100 μL of Delphia Enhancer Solution and fluorescence measured. IC50 values were determined from four-parameter fits to displacement plots.

[3] = system: control L6 cells; test: c-fos mRNA expression in control L6 cells that do not express FGFR; type: cell-based
[4] = system: PC12 cells; test: PC12 cell neurite outgrowth; type: cell-based; settings: 1 nM bFGF or 2 nM C19-jun, 15 U/ml heparin, 4 days
Method: 1×10^4 PC12 cells per well were plated on mouse laminin-and-poly-L-lysine-coated 24-well plates in 1 ml of media (RPMI 1640, 10% horse serum, 5% FCS, antibiotics) and stimulated with 1 nM bFGF or 2 nM C19-jun protein in the presence of 15 U/ml heparin for 4 days.

[5] = system: 293 cells expressing full-length FGFR1c; test: MAP kinase phosphorylation in 293 cells expressing FGFR1c; type: cell-based; settings: 1.0 nM bFGF or 50 nM C19jun, 15 U/ml heparin, 15 minutes
Method: (§1) To determine whether C19jun could activate FGF receptors in vivo, Swiss 3T3 cells were treated with basic FGF (bFGF) or purified C19jun protein. Cell extracts were then immunoprecipitated with anti-FGFR antibodies, analyzed by SDS-PAGE and immunoblotted with anti-phosphotyrosine antibodies. Extracts from bFGF and C19jun-stimulated 293 cells expressing FGFR1c were also immunoblotted with phospho-MAP Kinase-specific antibodies.
(§2) Swiss 3T3 fibroblasts, or 293 cells expressing full-length FGFRIc were incubated in quiescing media (DMEM, 1 μg/ml insulin, 5 μg/ml transferrin, 0.5 mg/ml BSA) for 24-48 hrs, and then stimulated with 1.0 nM bFGF or 50 nM refolded C19jun protein in the presence of 15 U/ml heparin for 15 minutes at 37° C. The cells were lysed and aliquots of lysate containing equal amounts of total protein were either analyzed directly by immunoblotting with phospho-MAPKspecific antibodies and anti-total MAPK antisera (New England Biolabs) or immunoprecipitated with anti-FGFR antisera and immunoblotted with anti-phosphotyrosine antibodies (Upstate Biotechnology, Inc.). Both bFGF and C19jun induced FGFR autophosphorylation and MAP kinase phosphorylation.

[6] = system: FGFR; test: FGFR autophosphorylation in Swiss 3T3 cells (anti-FGFR IP, anti-phosphotyrosine blot); type: cell-based; settings: 1.0 nM bFGF or 50 nM C19jun, 15 U/ml heparin, 15 minutes
Method: as §1, §2

[7] = system: L6 myoblast cell lines stably expressing FGFR1c; test: c-fos mRNA expression in L6 myoblasts stably expressing FGFR1c; type: cell-based
[8] = biological target: T2, FGFR1c ECD (Homo sapiens, UniProt P11362); test: BIAcore real-time kinetic analysis on immobilized FGFR1c ECD; type: binding; settings: absence of heparin
T2 construct: human FGFR Ic (residues 1-377); made in house
T2 sequence (P11362 22-377): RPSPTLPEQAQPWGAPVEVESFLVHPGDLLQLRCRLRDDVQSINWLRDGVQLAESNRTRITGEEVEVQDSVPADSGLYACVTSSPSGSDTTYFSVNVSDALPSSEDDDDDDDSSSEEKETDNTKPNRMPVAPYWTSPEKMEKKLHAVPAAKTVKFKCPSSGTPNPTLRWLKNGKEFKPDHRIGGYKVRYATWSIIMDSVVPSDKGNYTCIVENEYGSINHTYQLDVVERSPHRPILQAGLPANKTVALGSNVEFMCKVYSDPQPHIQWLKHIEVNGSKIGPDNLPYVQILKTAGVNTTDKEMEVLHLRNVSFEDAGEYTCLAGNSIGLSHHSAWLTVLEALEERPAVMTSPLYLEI
Method: Apparent affinities for immobilized FGFR1c ECD were determined using BIAcore real-time kinetic analysis in the absence of heparin.
Protein representing the linker segments and c-jun leucine zipper without the C19 sequence (FIG. 2) was expressed, purified, and characterized as for C19jun. C19 peptide with an intrapeptide disulfide bond was synthesized, purified by HPLC, and characterized by mass spectroscopy. C19junΔhep protein was prepared by changing human c-jun residues Arg276, Arg279, Lys285, and Lys288 in the leucine zipper domain to glutamines. Expression, purification, and characterization was as for C19jun. […] The extracellular ligand-binding domain of human FGFR Ic (residues 1-377) and human erythropoietin receptor (residues 1-250) were fused to the Fc region of human IgG1, expressed in baculovirus and purified by protein A affinity chromatography. […] PDGF receptor Fc fusion protein was from R&D Systems.

[9] = Binding to heparin agarose beads

## CC[C@H](C)[C@@H]1NC(=O)[C@H](CCCCN)NC(=O)[C@H]([C@@H](C)O)NC(=O)[C@H](Cc2c[nH]c3ccccc23)NC(=O)[C@H](C)NC(=O)[C@H](CO)NC(=O)[C@H](CC(=O)O)NC(=O)[C@H]([C@@H](C)O)NC(=O)[C@H](Cc2ccccc2)NC(=O)[C@H](C(C)C)NC(=O)[C@H](CC(C)C)NC(=O)[C@H](C(C)C)NC(=O)[C@@H](NC(=O)[C@H](Cc2ccc(O)cc2)NC(=O)[C@H](CC(=O)O)NC(=O)[C@H](CC(=O)O)NC(=O)CNC(=O)[C@H](CO)NC(=O)[C@H](CCC(=O)O)NC(=O)[C@H](C)N)CSSC[C@@H](C(=O)N[C@@H](CC(=O)O)C(=O)N[C@@H](Cc2c[nH]c3ccccc23)C(=O)N[C@@H](CO)C(=O)N[C@@H](Cc2c[nH]cn2)C(=O)N[C@@H](Cc2ccccc2)C(=O)N[C@@H](CCCNC(=N)N)C(=O)N[C@@H](CC(N)=O)C(=O)O)NC1=O [C19 synthetic peptide] (HELM PEPTIDE1{A.E.S.G.D.D.Y.C.V.L.V.F.T.D.S.A.W.T.K.I.C.D.W.S.H.F.R.N}$PEPTIDE1,PEPTIDE1,8:R3-21:R3$$$V2.0; N-terminus and C-terminus assumed)
[1]
  mitogenic activity in Swiss 3T3: did not induce mitogenesis even at high concentrations

## TLVCDTVLEGQWRVCNWE [F12 clone]
[2]
  IC50: ~12 nM

## bFGF: basic fibroblast growth factor, natural FGF receptor ligand used as comparator [reference compound]
[1]; Swiss 3T3, 15 U/ml heparin, FIG. 3, read-out: EC50 stimulation of mitogenesis (BrdU incorporation)
  EC50: 0.14 nM
[3]
  c-fos mRNA expression in control L6 cells: neither was active
[4]
  neurite outgrowth / PC12 cell differentiation: appearance of neurite extensions
[5]
  MAP kinase phosphorylation: induced
[6]
  FGFR autophosphorylation: induced
[7]
  c-fos mRNA expression in FGFR-expressing L6 cells: stimulated c-fos mRNA expression

## jun leucine zipper only: Protein representing the linker segments and c-jun leucine zipper without the C19 sequence (RIARLEEKVKTLKAQNSELASTANMLREQVAQLKQKVMN; not fully specified) [reference compound]
[1]; listed as Deletion of the C19 sequence from the fusion protein
  mitogenic activity in Swiss 3T3: abrogated mitogenic activity
[1]; listed as control protein
  mitogenic activity in Swiss 3T3: had no effect
[8]; BIAcore, approximate, read-out: KD, apparent affinity for immobilized FGFR1c ECD
  Kd: > 10000 nM

B1: C19junΔhep: C19jun with c-jun residues Arg276, Arg279, Lys285, Lys288 in the leucine zipper changed to glutamines (protein)
chain: MAESGDDYCVLVFTDSAWTKICDWSHFRNGPGGGSGGGSGGGSGGGSGGGSRCGGQIAQLEEKVQTLQAQNSELASTANMLREQVAQLKQKVMNHGGCGGSGGHHHHHH
[1]
  mitogenic activity in Swiss 3T3: inactive
[8]; in vitro
  binding to immobilized FGFR ECD: same apparent affinity as C19jun
[9]
  heparin binding: very low affinity for heparin

B2: F12jun: F12 sequence fused to GGGS linker, c-jun leucine zipper flanked by cysteines, polyhistidine tag; SEQ ID NO:43 (protein)
chain: MATLVCDTVLEGQWRVCNWEGPGGGSGGGSGGGSGGGSGGGSRCGGRIARLEEKVKTLKAQNSELASTANMLREQVAQLKQKVMNGGCGGSGGHHHHHH
[1]; Swiss 3T3, 18 hrs, 15 U/ml heparin, FIG. 6, read-out: EC50 mitogenic activity (BrdU incorporation)
  EC50: ~1.7 nM
